≈ marks a conversion by molar mass, not a printed value.
Key:
[1] = system: nuclear factor-(kappa)B and transcription factor AP-1; settings: Pandey et al 2005; cited from earlier work
[2] = system: IL-2 production in human PBMCs; settings: phytohemagglutinin stimulated; Pandey et al 2005; cited from earlier work
[3] = system: TNF-α production in human PBMCs; settings: lipo-polysaccharide induced; Pandey et al 2005; cited from earlier work
[4] = system: IL-1β release from PBM cells; assay: In-vitro IL-1β release inhibition assay from PBMCs (LPS, ELISA); type: cell-based; settings: Homo sapiens, PBMC; LPS stimulated PBM cells; read-out: IC50 against IL-1β release
Method: (§1) Blood (20 ml) was collected from healthy volunteers in a heparanised vial with 10 ml of lymphoprep (Nycomed pharma, AS) and centrifuged at 1800 rpm for 30 minutes at 23° C., mononuclear cell containing buffy layer was transferred to another tube and washed three times with PBS (phosphate buffered saline) and centrifuged at 1500 rpm for 15 minutes. Pellet cells were resuspended in 2 ml of RPMI-1640 medium (Biochrom, AG) supplemented with 25 mM HEPES [N-(2-hydroxyethyl)piperazine-N′-(2-ethanesulfonic acid)], L-glutamine (2 mM), penicillin (100 U/ ml), streptomycin (100 μg/ml) and 10% inactivated FCS (fetal calf serum) and, finally viable cells were counted.
(§2) PBM cells were adjusted to 1×10^6 cells/ml number in RPMI 1640 medium, (Biochrom AG) and 100 μl volume of this cell suspension per well was plated in a 96 well plate. […] Twenty μl of DMSO control and each concentration of these prepared test samples were added to corresponding wells in a 96 well plate. The plate was incubated for 30 minutes at room temperature on rotatory shaker at 200 rpm and 50 μl of lipopolysacchride (LPS) (4 μg/ml) was added to each well, except negative LPS control wells. […] A dose response curve was generated with different concentrations of test sample and the IC50 was calculated using Graph Pad Prism. […]

[5] = system: TNF-α, IL-1β and iNOS mRNA expression in RAW 264.7 cells; assay: In-vitro effect on gene expression of inflammatory mediators (semi-quantitative RT-PCR); type: cell-based, mouse; settings: 12 hrs incubation
[6] = system: LTB4 release from neutrophils; assay: In-vitro leukotriene B4 (LTB4) release assay (A23187, ELISA); type: cell-based; settings: Homo sapiens, Neutrophil; A23187 stimulated
Method: Neutrophils were isolated from freshly drawn human blood after dextran sedimentation and ficoll separation [Hatzelmann and Ullrich, Eur. J. […] Ca^++/Mg^++ (0.25 mM) was added, 3 minutes before the end of incubation with these test samples. Then, 0.3 μg/ml of A23187 (Calcimycin) was added and incubated for further 10 minutes. The reaction was stopped by adding 80 μl of cold methanol and mixture was spun at 3500 rpm for 10 minutes to remove cell debris. The samples were analyzed for LTB4 assay [Hatzelmann and Schudt, J. Pharmacol. Exp. […] (2001), 267-279] using LTB4 ELISA kits (Assay Design Inc., USA). The amount of LTB4 was quantified and percent inhibition in LTB4 release was calculated with respect to control (without test sample) to compute IC50 values.

[7] = system: supernatant cells; assay: Cell viability/toxicity test (MTT assay); type: cell-based
Method: Viability of cells was analyzed using (3-4,5-dimethylthiazol-2-yl)-2,5-diphenyl-tetrazolium bromide (MTT) assay (Mosmann T, J Immunol. Meth., 65 (1983), 55-63) with supernatant cells by adding 0.1 mL of MTT (0.25 mg/mL) with 0.1 mL of supernatant cells. The cells were incubated at 37° C. for about 2-4 hours, and then the optical density was measured at 490-650 nm.

[8] = system: TNF-α release from PBM cells; assay: In-vitro TNF-α release inhibition assay from PBMCs (LPS, ELISA); type: cell-based; settings: Homo sapiens, PBMC; LPS stimulated PBM cells
Method: as §1, §2

[9] = system: PBM cells (peripheral blood mononuclear cells); assay: In-vitro mitogen induced lymphocyte proliferation assay (3H-thymidine uptake); type: cell-based; settings: Homo sapiens, PBMC; 20 μg/ml
Method: Blood (20 ml) was collected from healthy volunteers in a […] 10 ml of lymphoprep (Nycomed pharma, AS) and centrifuged at 1800 rpm for 30 minutes at 23° C., mononuclear cell containing buffy layer was transferred to another tube and washed three times with PBS (phosphate buffered saline) and centrifuged at 1500 rpm for 15 minutes. […] PBM cells were adjusted to a concentration of 1×10^6 cells/ml in RPMI buffer (Biochrom AG) and 2×10^5 cells/well were seeded in a total volume of 200 μl to a 96 well U bottom plate. […] Cultures were incorporated with 0.5 μCi[3H], 18 hours before the completion of incubation and cells were harvested on glass fiber filter using multi-well harvester and thymidine uptake was determined by measuring radioactivity on liquid scintillation counter and the mean count per minute (CPM) of triplicate was calculated.

[10] = system: carrageenan induced paw edema; assay: Anti-inflammatory efficacy against carrageenan induced paw edema model; type: in vivo, rats; settings: 5 mg/kg oral, 3 hours post carrageenan
Method: One hour later, animals were challenged with carrageenan (1% w/v, 100 μL/rat) subplantarly. The paw edema was recorded 3 hours post carrageenan challenge. Data from each group was expressed as mean±SEM. Change in paw edema in treatment group were compared from vehicle control group using one-way ANOVA followed by Dunnett's multiple comparison test. A p≦0.05 was considered statistically significant.

[11] = system: CFA induced arthritis (contra-lateral paw volume); assay: Antiarthritic efficacy against CFA induced arthritis model; type: in vivo, Wistar rats; settings: 0.2 mg/kg/day
Method: Wistar rats were injected with 50 μL of 1 mg/ml solution of Complete Freund's adjuvant (CFA) subplantarly. […] The animals showing 0.30-0.40 ml increase in paw volume of the contralateral paw from the basal were included in the study.
The test sample or vehicle (polyethylene glycol+water 20:80) was administered in two divided doses for 10 days. The paw volume of the animals was recorded on the alternate days. A plot of change in paw volume from day 0 was made and area under the curve (AUC) was calculated using GraphPad Prism software (GraphPad Software Inc, USA, Version 4) for each animal and was averaged in each treatment group.

[12] = system: CFA induced hyperalgesia; assay: Antihyperalgesic activity against Complete Freund's adjuvant (CFA) induced hyperalgesia; type: in vivo, rats; settings: 5 mg/kg oral, 2 hours post treatment
Method: Basal weight bearing threshold of the rats was determined using Randall Selitto analgesiometer (Ugo Basile, Italy) followed by challenge with Complete Freund's adjuvant (a suspension of desiccated Mycobacterium butyricum in a mixture of paraffin oil and an emulsifying agent, mannide monooleate; 50 μL of 500 μg/ml suspension/animal), injected subplantarly. Twenty four hours later weight-bearing threshold of the animals was recorded as pre-dose values at time 0 hours. […] Two hours post treatment, weight-bearing threshold of the animals was recorded again. […] One group was treated with Incomplete Freund's adjuvant (IFA) and served as negative control group.

[13] = system: carrageenan induced hyperalgesia; assay: Analgesic efficacy against carrageenan induced hyperalgesia; type: in vivo, wistar rats; settings: 5 mg/kg oral, after 2 hours
[14] = system: CFA induced arthritis in ankle joint; assay: Histopathological analysis of CFA induced arthritis in ankle joint; type: in vivo, Wistar rats
Method: At the end of the study (p), animals were euthanized and ankle joints of contra-lateral hind limb were collected for histopathological evaluation Ankle joints were evaluated for the effect on synovial proliferation, inflammation of soft tissues, pannus formation and erosion of cartilage as well as bone (FIG. 13). The changes observed were scored as 0=no change, 1 mild, 2=moderate, 3=marked and 4=severe. The scores for each parameter mentioned above were summed to obtain total histopathological score for each animal.

[15] = system: formalin induced Phase I and Phase II pain; assay: Analgesic efficacy against formalin test; type: in vivo, mice; settings: 10 mg/kg i.p.
Method: Thirty minutes later, formalin solution (1% w/v, 25 μL/mice) was injected subplantarly in mice and immediately after injection, duration of mice licking or flicking of the injected paw was recorded for a period of 30 minutes in 5 minute slots. The first five minutes duration constitutes Phase-I pain which is centrally mediated while Phase-II pain which lasts from 10-30 minutes is peripherally mediated pain. Values of each group were expressed as mean±SEM (standard error of mean) and comparison was made with control group using one-way ANOVA followed by Dunnett's multiple test and a p≦0.05 was considered statistically significant.

[16] = system: LPS induced TNF-α release (plasma); assay: Anti-inflammatory efficacy against endotoxemia; type: in vivo, female Balb/C mice; settings: 10 mg/kg oral
From the text: One hour later, animals were challenged with LPS (lipopolysacchride). Ninety minutes later, blood was collected and TNF-α was estimated in the plasma using ELISA kit and values for each treatment group was expressed as mean±SEM. Comparison was made with control group using one-way ANOVA followed by Dunnett's multiple test and a p≦0.05 was considered statistically significant.

COc1cc2oc(-c3ccc(O)cc3)c(OC3OC(CO)C(O)C(O)C3O)c(=O)c2c(O)c1OC [Bd-I, eupalitin-3-O-beta-D-galactopyranoside]
activation of DNA binding of nuclear factor-(kappa)B and AP-1 [1]: block the activation of DNA binding | production of IL-2 at the protein and mRNA transcript levels [2]: inhibited | TNF-α production [3]: inhibited

Cc1c(O)cc2oc3c(c(=O)c2c1O)-c1ccccc1OC3O (centres unmarked) [Boeravinone B]
IC50 [4]: 3.6 µg/mL (≈ 11.5 µM) | expression of TNF-α, IL-1β and iNOS [5]: down regulated all the 3 inflammatory mediators | IC50 [6]: > 100 µg/mL | concentration at 50% viability of tested cells [7]: 64.5 µg/mL | IC50 [8]: 6.8 µg/mL (≈ 21.8 µM) | inhibition at 20 µg/mL [9]: 66%

Cc1c(O)cc2oc3c(c(=O)c2c1O)-c1ccc(O)cc1OC3O (centres unmarked) [Boeravinone E]
IC50 [4]: 7 µg/mL (≈ 21.3 µM) | expression of TNF-α, IL-1β and iNOS [5]: down regulated all the 3 inflammatory mediators | IC50 [6]: 21.8 µg/mL (≈ 66.4 µM) | concentration at 50% viability of tested cells [7]: 81.5 µg/mL | IC50 [8]: 7 µg/mL (≈ 21.3 µM) | inhibition at 20 µg/mL [9]: 59%

COc1ccc2c(c1)c(CC(=O)O)c(C)n2C(=O)c1ccc(Cl)cc1 [Indomethacin]
inhibition of carrageenan induced paw edema [10]: 48% | paw edema [11]: reversal of the paw edema toward basal level | reversal of the hyperalgesia induced by CFA [12]: 64% | inhibition (carrageenan induced hyperalgesia) [13]: 66% | % inhibition (histopathological score) ([14]; 0.2 mg/kg): 62.8% | recruitment of inflammatory cells ([14]; 0.2 mg/kg/day, FIG. 13 A): completely prevented the recruitment of inflammatory cells | Pannus formation ([14]; 0.2 mg/kg/day, FIG. 13 B): mild | inhibitory effect on cartilage degradation ([14]; 0.2 mg/kg/day, FIG. 13 C): prominent

CC(C)=CCN1CCC2(C)c3cc(O)ccc3CC1C2C (centres unmarked) [Pentazocin]
percent protection in Phase-I pain [15]: 40% | percent protection in Phase-II pain [15]: 50%

O=c1ncn2nc(Sc3ccc(F)cc3F)ccc2c1-c1c(Cl)cccc1Cl [Vx745]
inhibition of LPS response (TNF-α) [16]: 59%

From patent US20100120902A1, “STANDARIZED BIOACTIVE HERBAL EXTRACTS” (RANBAXY LABORATORIES LIMITED, priority 2007, published 2010)
